Results taken from US11168086B2, “Methods of synthesizing pyrazine compounds” (Hoffmann-La Roche Inc., priority 2015, dated 2021).

system: HBV; assay: HBV inhibition assay: anti-HBV activity in vitro in HepG2.2.15 cells (extracellular HBV DNA by qPCR); assay type: cell-based; details: Hepatitis B virus, 120 h, five days after compound treatment, extracellular HBV DNA in culture supernatant by qPCR, concentration at which HBV replication is inhibited by 50%
Method in brief: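 HepG2.2.15 cells (stably carrying HBV genome) treated with half-log serially diluted compounds at 0.5% DMSO final for five days. Extracellular HBV DNA in supernatant quantified by qPCR after Proteinase K digestion; EC50 is concentration giving 50% inhibition of replication.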

SMILES | EC50
C[C@H]1Cn2ncc(N3CC(c4cnco4)CC3=O)c2CN1C(=O)Nc1cc(F)c(F)c(F)c1 (stereo partly drawn) [Example 247, (6S)-6-methyl-3-(4-oxazol-5-yl-2-oxo-pyrrolidin-1-yl)-N-(3,4,5-trifluorophenyl)-6,7-dihydro-4H-pyrazolo[1,5-a]pyrazine-5-carboxamide] | 0.014 µM
CC1Cn2ncc(-c3ccc(F)cc3F)c2CN1C(=O)Nc1ccnc(F)c1 (centres unmarked) [Example 174, 3-(2,4-difluorophenyl)-N-(2-fluoro-4-pyridyl)-6-methyl-6,7-dihydro-4H-pyrazolo[1,5-a]pyrazine-5-carboxamide] | 0.066 µM
C[C@H]1Cn2ncc(N3CCC(O)C3=O)c2CN1C(=O)Nc1ccc(F)c(Cl)c1 (stereo partly drawn) [Example 256, (6S)—N-(3-chloro-4-fluoro-phenyl)-3-(3-hydroxy-2-oxo-pyrrolidin-1-yl)-6-methyl-6,7-dihydro-4H-pyrazolo[1,5-a]pyrazine-5-carboxamide] | 0.068 µM
C[C@H]1Cn2ncc(N3CC4(CC3=O)CN(c3ncccn3)C4)c2CN1C(=O)Nc1cc(F)c(F)c(F)c1 [Example 337, (6S)-6-methyl-3-(7-oxo-2-pyrimidin-2-yl-2,6-diazaspiro[3.4]octan-6-yl)-N-(3,4,5-trifluorophenyl)-6,7-dihydro-4H-pyrazolo[1,5-a]pyrazine-5-carboxamide] | 0.015 µM
C[C@H]1Cn2ncc(N3C[C@@H](Oc4ncc(F)cn4)CC3=O)c2CN1C(=O)Nc1cc(F)c(F)c(F)c1 [Example 382, (6S)-3-[(4S)-4-(5-fluoropyrimidin-2-yl)oxy-2-oxo-pyrrolidin-1-yl]-6-methyl-N-(3,4,5-trifluorophenyl)-6,7-dihydro-4H-pyrazolo[1,5-a]pyrazine-5-carboxamide] | 0.016 µM
Cc1nnc(C2CC(=O)N(c3cnn4c3CN(C(=O)Nc3cc(F)c(F)c(F)c3)[C@@H](C)C4)C2)o1 (stereo partly drawn) [Example 283, (6S)-6-methyl-3-[4-(5-methyl-1,3,4-oxadiazol-2-yl)-2-oxo-pyrrolidin-1-yl]-N-(3,4,5-trifluorophenyl)-6,7-dihydro-4H-pyrazolo[1,5-a]pyrazine-5-carboxamide] | 0.047 µM
C[C@H]1Cn2ncc(N3CC(C(=O)N4CCOCC4)CC3=O)c2CN1C(=O)Nc1cc(F)c(F)c(F)c1 (stereo partly drawn) [Example 386, (6S)-6-methyl-3-[4-(morpholine-4-carbonyl)-2-oxo-pyrrolidin-1-yl]-N-(3,4,5-trifluorophenyl)-6,7-dihydro-4H-pyrazolo[1,5-a]pyrazine-5-carboxamide] | 0.088 µM
Cc1ncc(C2CC(=O)N(c3cnn4c3CN(C(=O)Nc3cc(F)c(F)c(F)c3)[C@@H](C)C4)C2)o1 (stereo partly drawn) [Example 349, (6S)-6-methyl-3-[4-(2-methyloxazol-5-yl)-2-oxo-pyrrolidin-1-yl]-N-(3,4,5-trifluorophenyl)-6,7-dihydro-4H-pyrazolo[1,5-a]pyrazine-5-carboxamide] | 0.015 µM
C[C@H]1Cn2ncc(N3CC4(CC4)C(O)C3=O)c2CN1C(=O)Nc1cc(F)c(F)c(F)c1 (stereo partly drawn) [Example 424, (6S)-3-(7-hydroxy-6-oxo-5-azaspiro[2.4]heptan-5-yl)-6-methyl-N-(3,4,5-trifluorophenyl)-6,7-dihydro-4H-pyrazolo[1,5-a]pyrazine-5-carboxamide] | 0.044 µM
C[C@H]1Cn2ncc(N3C[C@H](O)CC3=O)c2CN1C(=O)Nc1cc(F)c(F)c(F)c1 [Example 376, (6S)-3-[(4R)-4-hydroxy-2-oxo-pyrrolidin-1-yl]-6-methyl-N-(3,4,5-trifluorophenyl)-6,7-dihydro-4H-pyrazolo[1,5-a]pyrazine-5-carboxamide] | 0.088 µM
C[C@H]1Cn2ncc(N3CC(C)(CO)CC3=O)c2CN1C(=O)Nc1cc(F)c(F)c(F)c1 (stereo partly drawn) [Example 362, (6S)-3-[4-(hydroxymethyl)-4-methyl-2-oxo-pyrrolidin-1-yl]-6-methyl-N-(3,4,5-trifluorophenyl)-6,7-dihydro-4H-pyrazolo[1,5-a]pyrazine-5-carboxamide] | 0.032 µM
CC1Cn2ncc(-c3ccc(F)cc3)c2CN1C(=O)Nc1ccc(F)c(Cl)c1 (centres unmarked) [Example 61, N-(3-chloro-4-fluoro-phenyl)-3-(4-fluorophenyl)-6-methyl-6,7-dihydro-4H-pyrazolo[1,5-a]pyrazine-5-carboxamide] | 0.029 µM
CC1Cn2ncc(-c3ccc(F)cc3)c2CN1C(=O)Nc1cc(F)c(F)c(F)c1 (centres unmarked) [Example 53, 3-(4-fluorophenyl)-6-methyl-N-(3,4,5-trifluorophenyl)-6,7-dihydro-4H-pyrazolo[1,5-a]pyrazine-5-carboxamide] | 0.034 µM
C[C@H]1Cn2ncc(N3CC(C)(C)NC3=O)c2CN1C(=O)Nc1ccc(F)c(Cl)c1 [Example 245, (6S)—N-(3-chloro-4-fluoro-phenyl)-3-(4,4-dimethyl-2-oxo-imidazolidin-1-yl)-6-methyl-6,7-dihydro-4H-pyrazolo[1,5-a]pyrazine-5-carboxamide] | 0.053 µM
C[C@@H]1CN(C(=O)C2CC(=O)N(c3cnn4c3CN(C(=O)Nc3cc(F)c(F)c(F)c3)[C@@H](C)C4)C2)C[C@@H](C)O1 (stereo partly drawn) [Example 396, (6S)-3-[4-[trans-2,6-dimethylmorpholine-4-carbonyl]-2-oxo-pyrrolidin-1-yl]-6-methyl-N-(3,4,5-trifluorophenyl)-6,7-dihydro-4H-pyrazolo[1,5-a]pyrazine-5-carboxamide] | 0.058 µM
C[C@H]1Cn2ncc(N3CC(C#N)(CO)CC3=O)c2CN1C(=O)Nc1cc(F)c(F)c(F)c1 (stereo partly drawn) [Example 360, (6S)-3-[4-cyano-4-(hydroxymethyl)-2-oxo-pyrrolidin-1-yl]-6-methyl-N-(3,4,5-trifluorophenyl)-6,7-dihydro-4H-pyrazolo[1,5-a]pyrazine-5-carboxamide] | 0.043 µM
C[C@H]1Cn2ncc(N3CC(C)(C#N)CC3=O)c2CN1C(=O)Nc1cc(F)c(F)c(C(F)F)c1 (stereo partly drawn) [Example 361, (6S)-3-(4-cyano-4-methyl-2-oxo-pyrrolidin-1-yl)-N-[3-(difluoromethyl)-4,5-difluoro-phenyl]-6-methyl-6,7-dihydro-4H-pyrazolo[1,5-a]pyrazine-5-carboxamide] | 0.011 µM
C[C@H]1Cn2ncc(N3CC(O)CC3=O)c2CN1C(=O)Nc1ccc(F)c(Cl)c1 (stereo partly drawn) [Example 232, (6S)—N-(3-chloro-4-fluoro-phenyl)-3-(4-hydroxy-2-oxo-pyrrolidin-1-yl)-6-methyl-6,7-dihydro-4H-pyrazolo[1,5-a]pyrazine-5-carboxamide] | 0.049 µM
C[C@H]1Cn2ncc(N3CC(c4nccs4)CC3=O)c2CN1C(=O)Nc1cc(F)c(F)c(F)c1 (stereo partly drawn) [Example 291, (6S)-6-methyl-3-(2-oxo-4-thiazol-2-yl-pyrrolidin-1-yl)-N-(3,4,5-trifluorophenyl)-6,7-dihydro-4H-pyrazolo[1,5-a]pyrazine-5-carboxamide] | 0.007 µM
CC1CN(c2cnn3c2CN(C(=O)Nc2ccc(F)c(Cl)c2)[C@@H](C)C3)C(=O)O1 (stereo partly drawn) [Example 321, (6S)—N-(3-chloro-4-fluoro-phenyl)-6-methyl-3-(5-methyl-2-oxo-oxazolidin-3-yl)-6,7-dihydro-4H-pyrazolo[1,5-a]pyrazine-5-carboxamide] | 0.047 µM
CC1Cn2ncc(C3CCCC3)c2CN1C(=O)Nc1cc(F)c(F)c(F)c1 (centres unmarked) [Example 204, 3-cyclopentyl-6-methyl-N-(3,4,5-trifluorophenyl)-6,7-dihydro-4H-pyrazolo[1,5-a]pyrazine-5-carboxamide] | 0.036 µM
C[C@H]1Cn2ncc(N3CC(C)(C)OC3=O)c2CN1C(=O)Nc1cc(F)c(F)c(C(F)F)c1 [Example 276, (6S)—N-[3-(difluoromethyl)-4,5-difluoro-phenyl]-3-(5,5-dimethyl-2-oxo-oxazolidin-3-yl)-6-methyl-6,7-dihydro-4H-pyrazolo[1,5-a]pyrazine-5-carboxamide] | 0.006 µM
C[C@H]1Cn2ncc(N3CC(c4cocn4)CC3=O)c2CN1C(=O)Nc1cc(F)c(F)c(F)c1 (stereo partly drawn) [Example 352, (6S)-6-methyl-3-(4-oxazol-4-yl-2-oxo-pyrrolidin-1-yl)-N-(3,4,5-trifluorophenyl)-6,7-dihydro-4H-pyrazolo[1,5-a]pyrazine-5-carboxamide] | 0.014 µM
C[C@H]1Cn2ncc(N3CC[C@H](O)C3=O)c2CN1C(=O)Nc1cc(F)c(F)c(F)c1 [Example 262, (6S)-3-[(3S)-3-hydroxy-2-oxo-pyrrolidin-1-yl]-6-methyl-N-(3,4,5-trifluorophenyl)-6,7-dihydro-4H-pyrazolo[1,5-a]pyrazine-5-carboxamide] | 0.065 µM
C[C@H]1Cn2ncc(N3CCCC3=O)c2CN1C(=O)Nc1cc(F)c(F)c(F)c1 [Example 356, (6S)-6-methyl-3-(2-oxopyrrolidin-1-yl)-N-(3,4,5-trifluorophenyl)-6,7-dihydro-4H-pyrazolo[1,5-a]pyrazine-5-carboxamide] | 0.05 µM
C[C@H]1Cn2ncc(N3C[C@@H](Oc4ncccn4)[C@H](O)C3=O)c2CN1C(=O)Nc1cc(F)c(F)c(F)c1 [Example 428, (6S)-3-[(3S,4R)-3-hydroxy-2-oxo-4-pyrimidin-2-yloxy-pyrrolidin-1-yl]-6-methyl-N-(3,4,5-trifluorophenyl)-6,7-dihydro-4H-pyrazolo[1,5-a]pyrazine-5-carboxamide] | 0.006 µM
C[C@H]1Cn2ncc(-c3ncc(F)cn3)c2CN1C(=O)Nc1cc(F)c(F)c(F)c1 [Example 341, (6S)-3-(5-fluoropyrimidin-2-yl)-6-methyl-N-(3,4,5-trifluorophenyl)-6,7-dihydro-4H-pyrazolo[1,5-a]pyrazine-5-carboxamide] | 0.04 µM
CC1CCN(c2cnn3c2CN(C(=O)Nc2ccc(F)c(Cl)c2)[C@@H](C)C3)C1=O (stereo partly drawn) [Example 297, (6S)—N-(3-chloro-4-fluoro-phenyl)-6-methyl-3-(3-methyl-2-oxo-pyrrolidin-1-yl)-6,7-dihydro-4H-pyrazolo[1,5-a]pyrazine-5-carboxamide] | 0.068 µM

same assay, conditions: five days after compound treatment, extracellular HBV DNA in culture supernatant by qPCR, concentration at which HBV replication is inhibited by 50%

SMILES | EC50
C[C@H]1Cn2ncc(N3CC(c4ccccc4)C(O)C3=O)c2CN1C(=O)Nc1cc(F)c(F)c(F)c1 (single isomer, unassigned) [Example 438-2] | 0.108 µM
